# System: Vibrio anguillarum (V-775)
# Experiment: Vaccine augmentation in Rainbow trout challenged with Vibrio anguillarum
# Assay type: in vivo, Rainbow trout (Oncorhynchus mykiss)
# Protocol: In the present investigation, fish were obtained and inoculated at approximately 12 weeks of age. Immunologic studies were conducted under a variety of conditions in which fish were provided with vaccination to observe vaccine augmentation, and under conditions in which no vaccine was provided prior to inoculum. The effects of exposure time, HM897 concentration, and vaccine on mortalities relative to control studies in which no HM897 was administered provided data for analysis of the immunologic effect of HM897.
# The study was conducted using Rainbow trout (Oncorhynchus mykiss) to compare the effects of a standard fish vaccine to the protection provided by varying dosages of HM897. The fish were challenged with Vibrio anguillarum (V-775), a bacteria that causes fatal vibriosis, typically 3-5 days following pathogen exposure.
# Rainbow Trout (Oncorhynchus mykiss) weighing approximately 5 grams were used as test organisms. The fish were obtained from Cran-Mar Trout Farm. Upon arrival at BRL's facility, the fish were quarantined for a minimum of seven days, and observed to be disease free. During this period, the fish were held at a stable temperature. There was consistent water quality in an aerated flow-through system with a flow rate of approximately 30 liters per hour. During the holding period the fish were observed daily for signs of disease, stress, injury, hemorrhaging, and external parasite. The fish were not fed 48 hours prior to testing.
# The Rainbow trout used in this study weighed an average of 5 grams. The fish were divided into 21 groups with 50 fish per group. Each group of 50 fish was maintained in two 10-gallon tanks (25 fish/tank).
# The level of bacterial dilution to achieve a LD75 (the level designed to kill 75% of the non-vaccinated fish) was a dilution of 10^−4. to 10^−5. The challenge bacteria were grown for 48 hours at 25° C in trypticase soy broth. The 10^−4 dilution was made from this broth in 0.9% saline. All fish excepting the control group that received no bacterial challenge were inoculated 7 days after exposure to HM897.
# Rainbow trout hatchling were exposed to the concentration of HM897 as described below. Some of the fish had been vaccinated while others had received no vaccination. In each tank, fifty vaccinated or unvaccinated fish were exposed for a period of 5 minutes to HM897, and then removed and placed in an assigned tank according to the group number.
# The positive control group (III) received a vaccine made from Vibrio anguillarum (V-775). This was made through a fermentation and extraction process in the BRL laboratory facility and is equivalent to the aquaculture industry standard vibrio vaccine.
# All groups scheduled to be challenged with the Vibrio anguillarum bacterium were challenged at the LD75 dilution on day seven of the experiment by i.p. injection of 0.1 mL of 10^−4 bacterial dilution. The fish were observed daily for mortalities.
substance,measurement,setting,value
Thr-Ala-Glu-Glu-Lys (TAEEK) [HM897],Cumulative Mortalities,"Day 17, Group IVd: vaccinated, HM897 100 μg/38 liters",17
same,Cumulative Mortalities,"Day 17, Group Va: not vaccinated, HM897 10 μg/38 liters",33
same,Cumulative Mortalities,"Day 17, Group Vb: not vaccinated, HM897 25 μg/38 liters",33
same,Cumulative Mortalities,"Day 17, Group Vc: not vaccinated, HM897 75 μg/38 liters",34
same,Cumulative Mortalities,"Day 18, Group IVa: vaccinated, HM897 2.5 μg/38 liters",13
same,Cumulative Mortalities,"Day 18, Group IVb: vaccinated, HM897 10 μg/38 liters",7
same,Cumulative Mortalities,"Day 18, Group IVc: vaccinated, HM897 50 μg/38 liters",10
same,Cumulative Mortalities,"Day 18, Group IVd: vaccinated, HM897 100 μg/38 liters",17
same,Cumulative Mortalities,"Day 18, Group Va: not vaccinated, HM897 10 μg/38 liters",33
same,Cumulative Mortalities,"Day 18, Group Vb: not vaccinated, HM897 25 μg/38 liters",33
same,Cumulative Mortalities,"Day 18, Group Vc: not vaccinated, HM897 75 μg/38 liters",34
same,Cumulative Mortalities,"Day 18, Group Vd: not vaccinated, HM897 150 μg/38 liters",32
same,Cumulative Mortalities,"Day 19, Group IVa: vaccinated, HM897 2.5 μg/38 liters",13
same,Cumulative Mortalities,"Day 19, Group IVb: vaccinated, HM897 10 μg/38 liters",7
same,Cumulative Mortalities,"Day 19, Group IVc: vaccinated, HM897 50 μg/38 liters",10
same,Cumulative Mortalities,"Day 19, Group IVd: vaccinated, HM897 100 μg/38 liters",17
same,Cumulative Mortalities,"Day 19, Group Va: not vaccinated, HM897 10 μg/38 liters",33
same,Cumulative Mortalities,"Day 19, Group Vb: not vaccinated, HM897 25 μg/38 liters",33
same,Cumulative Mortalities,"Day 19, Group Vc: not vaccinated, HM897 75 μg/38 liters",34
same,Cumulative Mortalities,"Day 19, Group Vd: not vaccinated, HM897 150 μg/38 liters",32
same,Cumulative Mortalities,"Day 20, Group IVa: vaccinated, HM897 2.5 μg/38 liters",13
same,Cumulative Mortalities,"Day 20, Group IVb: vaccinated, HM897 10 μg/38 liters",7
same,Cumulative Mortalities,"Day 20, Group IVc: vaccinated, HM897 50 μg/38 liters",10
same,Cumulative Mortalities,"Day 20, Group IVd: vaccinated, HM897 100 μg/38 liters",17
same,Cumulative Mortalities,"Day 20, Group Va: not vaccinated, HM897 10 μg/38 liters",33
same,Cumulative Mortalities,"Day 20, Group Vb: not vaccinated, HM897 25 μg/38 liters",33
same,Cumulative Mortalities,"Day 20, Group Vc: not vaccinated, HM897 75 μg/38 liters",34
same,Cumulative Mortalities,"Day 20, Group Vd: not vaccinated, HM897 150 μg/38 liters",32
same,Cumulative Mortalities,"Day 21, Group IVa: vaccinated, HM897 2.5 μg/38 liters",13
same,Cumulative Mortalities,"Day 21, Group IVb: vaccinated, HM897 10 μg/38 liters",7
same,Cumulative Mortalities,"Day 21, Group IVc: vaccinated, HM897 50 μg/38 liters",10
same,Cumulative Mortalities,"Day 21, Group IVd: vaccinated, HM897 100 μg/38 liters",17
same,Cumulative Mortalities,"Day 21, Group Va: not vaccinated, HM897 10 μg/38 liters",33
same,Cumulative Mortalities,"Day 21, Group Vb: not vaccinated, HM897 25 μg/38 liters",33
same,Cumulative Mortalities,"Day 21, Group Vc: not vaccinated, HM897 75 μg/38 liters",34
same,Cumulative Mortalities,"Day 21, Group Vd: not vaccinated, HM897 150 μg/38 liters",32
same,Percent Mortalities,"Group IVa: vaccinated, HM897 2.5 μg/38 liters",26%
same,Percent Mortalities,"Group IVb: vaccinated, HM897 10 μg/38 liters",14%
same,Percent Mortalities,"Group IVc: vaccinated, HM897 50 μg/38 liters",20%
same,Percent Mortalities,"Group IVd: vaccinated, HM897 100 μg/38 liters",34%
same,Percent Mortalities,"Group Va: not vaccinated, HM897 10 μg/38 liters",66%
same,Percent Mortalities,"Group Vb: not vaccinated, HM897 25 μg/38 liters",66%
same,Percent Mortalities,"Group Vc: not vaccinated, HM897 75 μg/38 liters",68%
same,Percent Mortalities,"Group Vd: not vaccinated, HM897 150 μg/38 liters",64%
same,Percent Mortalities,"Group Ve: not vaccinated, HM897 250 μg/38 liters",68%
same,protection against the bacterial infection,HM897 exposure without vaccine (Groups Va to Ve),no protection
same,Total Mortalities,"Table XI-3, Group IVa: vaccinated, HM897 2.5 μg/38 liters",13
same,Total Mortalities,"Table XI-3, Group IVb: vaccinated, HM897 10 μg/38 liters",7
same,Total Mortalities,"Table XI-3, Group IVc: vaccinated, HM897 50 μg/38 liters",10
same,Total Mortalities,"Table XI-3, Group IVd: vaccinated, HM897 100 μg/38 liters",17
same,Total Mortalities,"Table XI-3, Group Va: not vaccinated, HM897 10 μg/38 liters",33
same,Total Mortalities,"Table XI-3, Group Vb: not vaccinated, HM897 25 μg/38 liters",33
same,Total Mortalities,"Table XI-3, Group Vc: not vaccinated, HM897 75 μg/38 liters",34
same,Total Mortalities,"Table XI-3, Group Vd: not vaccinated, HM897 150 μg/38 liters",32
same,Total Mortalities,"Table XI-3, Group Ve: not vaccinated, HM897 250 μg/38 liters",34
same,Total Mortalities,"Table XI-4, Group IVa: vaccinated, HM897 2.5 μg/38 liters",13
same,Total Mortalities,"Table XI-4, Group IVb: vaccinated, HM897 10 μg/38 liters",7
same,Total Mortalities,"Table XI-4, Group IVc: vaccinated, HM897 50 μg/38 liters",10
same,Total Mortalities,"Table XI-4, Group IVd: vaccinated, HM897 100 μg/38 liters",17
same,Total Mortalities,"Table XI-4, Group Va: not vaccinated, HM897 10 μg/38 liters",33
same,Total Mortalities,"Table XI-4, Group Vb: not vaccinated, HM897 25 μg/38 liters",33
same,Total Mortalities,"Table XI-4, Group Vc: not vaccinated, HM897 75 μg/38 liters",34
same,Total Mortalities,"Table XI-4, Group Vd: not vaccinated, HM897 150 μg/38 liters",32
same,Total Mortalities,"Table XI-4, Group Ve: not vaccinated, HM897 250 μg/38 liters",34
same,augmentation of vaccinations,vaccinated fish exposed to HM897,statistically significant effect
